Reference: US20200377483A1, “NEW ANTI-MALARIAL AGENT” (MMV MEDICINES FOR MALARIA VENTURE, priority 2016, published 2020)
Converted amounts (≈) assume the structure as drawn. “And” between values parts separate entries of the source, which are not always exact repeats. Equal values may be shown once. Read-outs that look alike come from different tables or passages of the source. Marks after values point to notes of the source that are not given here.

How the values were obtained:
[1] = tested on: artemisinin-resistant P. falciparum isolate from Cambodia; test: Ring-stage survival assay (RSA0-3h); type: cell-based; settings: for RSA values ± SEM (survival): 6 h exposure, 66 h post-treatment
Experimental: Agents Chemother. 57:914-923), but with a few modifications in the drug washing procedure to ensure that no residual peroxide was present during the 66 h post-treatment period. Briefly, 0-3 h post-invasion ring stages were adjusted to 1% parasitemia and 2.5% haematocrit by adding uninfected erythrocytes, transferred in a total volume of 1 mL into 48-well plates and exposed for 6 h to a range of concentrations ([…]) of DHA or one of the compounds tested in this study. After 6 h, cultures were transferred to 15 mL conical tubes, centrifuged at 1400 rpm (400 g) for 2 min and carefully washed 2 times with 12 mL of culture medium. […] After washing, blood pellets were resuspended in complete compound-free culture medium, transferred into new wells and cultured for 66 h in standard conditions. Table 8 below presents the Ring-stage survival assay (RSA) values as tested in Wells et al., 2015, supra for compounds of the invention and comparative compounds.

P. berghei = test: In vivo activity in P. berghei (Pb) infected mice
Experimental: (§1) The ability of dispiro 1,2,4-trioxolane derivatives according to the invention to show antimalarial efficacy in vitro and in vivo was tested as described in Charman, et al, 2011, PNAS, 108, 4400-4405 against chloroquine-resistant (K1) and chloroquine-sensitive (NF54) strains of P. falciparum in vitro (Vennerstrom et al. 2004, Nature, 430, 900-904).
(§2) The in vivo activity is shown in P. berghei (Pb) infected mice in terms of the percentage of inhibition of parasitemia following compound administration and the number of survival days.

[2] = Solubility in biorelevant media; type: physicochemical; settings: PBS, pH 7.4
[3] = tested on: chloroquine-resistant (K1) strain of P. falciparum; test: In vitro antimalarial activity, K1 strain; type: cell-based
Experimental: as §1, §2

[4] = Solubility in biorelevant media; type: physicochemical
Experimental: Compounds were each accurately weighed into individual screw cap polypropylene tubes and media added to give a nominal minimum target compound concentration of 2.2 mg/mL. Samples were vortex mixed and placed in a 37° C. incubator where they were continually mixed on an orbital shaker (IKA® VXR basic Vibrax® orbital shaker) at 600 rpm. Incubation times were 1 hour for fasted state simulated gastric fluid (FaSSGF) and 5 hours for fasted and fed state simulated intestinal fluids (FaSSIF-V2 and FeSSIF-V2 respectively). Sampling was carried out by centrifuging each sample at 10,000 rpm for 3 minutes, transferring 300 μL, aliquots into fresh Eppendorf tubes and centrifuging these tubes again at 10,000 rpm for 3 minutes. Triplicate aliquots of each final supernatant were diluted 20-fold in 50% aqueous methanol, and then further diluted in 50% aqueous acetonitrile to be within an appropriate concentration range for analysis by LC-MS. LC-MS methods and validation data for the analysis of solubility samples are shown in Table 2 below and the media composition is shown in Table 3.

[5] = tested on: chloroquine-sensitive (NF54) strain of P. falciparum; test: In vitro antimalarial activity, NF54 strain; type: cell-based
Experimental: as §1, §2

CLint, M = type: in vitro ADME, mouse; settings: M (fourth of H, D, R, M)
[6] = tested on: CYP isoforms (1A2, 2B6, 2C8, 2C9, 2C19, 2D6, 3A4/5); test: Time-dependent CYP inhibition (IC50 shift), CYP isoforms; type: in vitro ADME; settings: human liver microsomes, 30 min pre-incubation with or without NADPH
Experimental: Time-dependent CYP inhibition can occur as a result of irreversible interactions of a test compound with a CYP450 enzyme (i.e. mechanism-based inhibition; MBI) or, alternatively, by reversible product inhibition (i.e. whereby the metabolite of the test compound is responsible for inhibition of the CYP). The potential for time-dependent CYP inhibition was assessed using CYP-specific metabolic pathways in human liver microsomes by measuring the formation of metabolites known to be formed by individual CYP isoforms (Table 5) according to the following protocol (probe substrates, metabolites and incubation times):
The assessment of time-dependent inhibition was based on measurement of the “IC50 shift”, whereby the IC50 was measured following pre-incubation of test compound (or reference inhibitor) in the absence or presence of NADPH. A 10-fold dilution step was incorporated following the pre-incubation to minimize reversible product inhibition (by potential metabolites of test compound) such that evidence of time-dependent inhibition is more likely to reflect mechanism-based inhibition. The maximum concentration of test compound in the pre-incubation mixture (containing either 1 or 2 mg/mL microsomal protein and 1.0% v/v DMSO) was 200 μM, and the potential for precipitation of test compound was closely monitored at the time of spiking. […]

CLint, R = type: in vitro ADME, rat; settings: R (third of H, D, R, M)
CLint, D = type: in vitro ADME, dog; settings: D (second of H, D, R, M)
[7] = tested on: 7 CYP isoforms (1A2, 2B6, 2C8, 2C9, 2C19, 2D6, 3A4/5); test: Cyp inhibition IC50, 7 isoforms, human liver microsomes; type: in vitro ADME
Experimental: The assessment of time-dependent inhibition was based on measurement of the “IC50 shift”, whereby the IC50 was measured following pre-incubation of test compound (or reference inhibitor) in the absence or presence of NADPH. A 10-fold dilution step was incorporated following the pre-incubation to minimize reversible product inhibition (by potential metabolites of test compound) such that evidence of time-dependent inhibition is more likely to reflect mechanism-based inhibition. The maximum concentration of test compound in the pre-incubation mixture (containing either 1 or 2 mg/mL microsomal protein and 1.0% v/v DMSO) was 200 μM, and the potential for precipitation of test compound was closely monitored at the time of spiking. […] On this basis, it is assumed that test compounds were fully dissolved at all concentrations in the pre-incubation mixtures. Reference inhibitors (both mechanism-based and reversible inhibitors) were included to validate the assay. […]

CLint, H = type: in vitro ADME, human; settings: H (first of H, D, R, M)

Row | SMILES | RSA values ± SEM (survival) ([1]; 49 nM) | RSA values ± SEM (survival) ([1]; 88 nM) [%] | RSA values ± SEM (survival) ([1]; 175 nM) [%] | RSA values ± SEM (survival) ([1]; 350 nM) [%] | RSA values ± SEM (survival) ([1]; 700 nM) | % activity (percentage of inhibition of parasitemia) (P. berghei; Pb 1 × 10 mg/kg) [%] | Survival days (P. berghei; Pb 1 × 10 mg/kg) [days] | % activity (percentage of inhibition of parasitemia) (P. berghei; Pb 1 × 30 mg/kg) [%] | Survival days (P. berghei; Pb 1 × 30 mg/kg) [days] | Conc. (solubility) [2] | IC50 K1 [3] [ng/mL] | Conc. (solubility) ([4]; FaSSGF, 37° C., 1 hour) [µg/mL] | Conc. (solubility) ([4]; FaSSIF-V2, 37° C., 5 hours) [µg/mL] | Conc. (solubility) ([4]; FeSSIF-V2, 37° C., 5 hours) [µg/mL] | IC50 NF54 [5] [ng/mL] | other results
1 | CC1(C)CC(O)(COc2ccc([C@H]3CC[C@]4(CC3)OOC3(O4)C4CC5CC(C4)CC3C5)cc2)CC(C)(C)N1 (stereo partly drawn) [Compound (1), cis-Adamantane-2-spiro-3′-8′-[4′-[(4′-hydroxy-2′,2′,6′,6′-tetramethyl-4′-piperidinyl)methoxy]phenyl]-1′,2′,4′-trioxaspiro[4.5]decane] | 1.29 ± 1.24% | 0.16 ± 0.23 | 0.11 ± 0.08 | 0 | 0% | 99.1 | 13.6 | 99.6 | >30 | 10.6 µg/mL | 1.2 (≈ 0.00228 µM) | 10.1 | 1516 | >2000 | 0.9 (≈ 0.00171 µM) | –
2 | c1cc(C2CCC3(CC2)OOC2(O3)C3CC4CC(C3)CC2C4)ccc1OCCC1CCNCC1 (stereo not drawn) [Compound (2), cis-Adamantane-2-spiro-3′-8′-[4′-[2′-(4′-piperidinyl)ethoxy]phenyl]-1′,2′,4′-trioxaspiro [4.5]decane] | 0.76 ± 0.60% | 0 | 0 | 0 | 0% | 99.4 | 13.4 | 99.5 | >30 | <1^c μg/mL | 1.4 (≈ 0.00299 µM) | 5.6 | 293 | 1632 | 1.4 (≈ 0.00299 µM) | CLint M (CLint, M): 16 µL/min/mg; Time Dependent Inhibition [6]: none; growth of the artemisinin-resistant isolate ([1]; 700, 350, 175 and 88 nM): completely inhibiting the growth; CLint R (CLint, R): < 7 µL/min/mg; CLint D (CLint, D): 9 µL/min/mg; IC50 [7]: > 20 µM; CLint H (CLint, H): < 7 µL/min/mg
3 | c1cc([C@H]2CC[C@]3(CC2)OO[C@]2(O3)C3CC4CC(C3)CC2C4)ccc1OCCN1CCOCC1 [Compound C1, reference compound] | – | 0.93 ± 0.93 | 0.73 ± 1.03 | 0.73 ± 1.03 | 0.73 ± 1.03% | 99.5 | 15.2 | 98.1 | >30 | – | – | 79.0 | 40.6 | 563 | – | solubility at 1 h ([4]; fasted state simulated gastric fluid (FaSSGF), 37 °C, fassgf or other biorelevant, thermodynamic from solid, FaSSGF, 37° C., 1 hour, read-out: Conc. (solubility)): 51.9 µg/mL (≈ 111 µM); solubility at 5 h ([4]; fasted state simulated intestinal fluid (FaSSIF-V2), 37 °C, fassif, thermodynamic from solid, FaSSIF-V2, 37° C., 5 hours, read-out: Conc. (solubility)): 22.3 µg/mL (≈ 47.5 µM); solubility at 5 h ([4]; fed state simulated intestinal fluid (FeSSIF-V2), 37 °C, fessif, thermodynamic from solid, FeSSIF-V2, 37° C., 5 hours, read-out: Conc. (solubility)): 557 µg/mL (≈ 1190 µM); IC50 ([5]; Plasmodium falciparum): 2 ng/mL (≈ 0.00426 µM)
4 | C[C@H]1[C@@H](O)O[C@@H]2O[C@@]3(C)CC[C@H]4[C@H](C)CC[C@@H]1[C@@]24OO3 [DHA, Dihydroartemisinin, reference compound] | 74% and 73.5 ± 12.3% | 60.03 ± 4.99 | 47.94 ± 3.88 | 37.67 ± 3.65 | 33% and 33.02 ± 4.39% | – | – | – | – | – | – | – | – | – | – | –
